The record followed here is patent publication US20250205344A1, “2,4-DIOXOTETRAHYDROPYRIMIDINYL DERATIVES AS DEGRONS IN PROTACS” (GLAXOSMITHKLINE INTELLECTUAL PROPERTY DEVELOPMENT LIMITED, priority 2022, published 2025).

Counter-ions that a name gives are not always drawn.

For the assay, the target named is T1, Androgen Receptor (Homo sapiens, UniProt P10275, T878A).
T1 construct: the AR gene was modified, using CRISPR/Cas9 editing, so the expressed AR protein included an 11 amino acid HiBiT tag; endogenous in cells; host or cells: clonal LnCaP-derived line, AR gene edited by CRISPR/Cas9
T1 sequence (P10275 whole entry T878A): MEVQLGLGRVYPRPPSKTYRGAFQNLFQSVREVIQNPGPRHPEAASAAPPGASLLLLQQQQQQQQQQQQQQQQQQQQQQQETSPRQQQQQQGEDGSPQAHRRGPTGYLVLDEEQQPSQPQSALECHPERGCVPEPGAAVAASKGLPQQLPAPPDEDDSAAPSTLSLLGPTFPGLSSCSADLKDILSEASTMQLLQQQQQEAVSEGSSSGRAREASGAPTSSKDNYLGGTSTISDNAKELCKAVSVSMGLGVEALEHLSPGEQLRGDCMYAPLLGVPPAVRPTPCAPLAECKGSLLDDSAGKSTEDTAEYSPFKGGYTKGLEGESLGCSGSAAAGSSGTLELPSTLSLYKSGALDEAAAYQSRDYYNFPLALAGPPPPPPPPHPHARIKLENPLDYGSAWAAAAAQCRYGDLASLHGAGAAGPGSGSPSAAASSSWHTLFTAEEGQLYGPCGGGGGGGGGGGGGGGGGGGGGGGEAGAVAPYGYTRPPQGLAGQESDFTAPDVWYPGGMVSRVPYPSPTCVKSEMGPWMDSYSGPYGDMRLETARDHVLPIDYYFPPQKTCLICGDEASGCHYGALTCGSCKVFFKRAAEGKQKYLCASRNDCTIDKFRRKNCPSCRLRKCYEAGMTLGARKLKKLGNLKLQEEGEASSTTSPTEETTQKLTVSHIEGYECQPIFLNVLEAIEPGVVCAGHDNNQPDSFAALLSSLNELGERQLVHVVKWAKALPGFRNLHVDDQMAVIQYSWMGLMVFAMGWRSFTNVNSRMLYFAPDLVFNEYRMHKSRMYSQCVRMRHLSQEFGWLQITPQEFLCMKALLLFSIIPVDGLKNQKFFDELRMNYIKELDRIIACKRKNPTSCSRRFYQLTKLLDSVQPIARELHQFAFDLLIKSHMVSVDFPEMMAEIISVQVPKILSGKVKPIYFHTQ
T1 sequence (Q96SW2 whole entry partner): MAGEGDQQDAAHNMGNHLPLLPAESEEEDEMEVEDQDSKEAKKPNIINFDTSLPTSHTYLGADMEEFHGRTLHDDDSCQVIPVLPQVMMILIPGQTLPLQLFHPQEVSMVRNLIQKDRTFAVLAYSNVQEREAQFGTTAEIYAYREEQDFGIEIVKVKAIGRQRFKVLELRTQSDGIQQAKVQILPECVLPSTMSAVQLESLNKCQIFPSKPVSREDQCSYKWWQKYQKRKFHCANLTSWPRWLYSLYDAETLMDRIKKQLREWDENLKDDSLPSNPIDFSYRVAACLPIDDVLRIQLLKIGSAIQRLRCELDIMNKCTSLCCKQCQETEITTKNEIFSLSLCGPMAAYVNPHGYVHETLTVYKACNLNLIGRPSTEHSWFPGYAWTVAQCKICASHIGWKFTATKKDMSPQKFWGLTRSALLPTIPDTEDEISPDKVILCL
T1 sequence (Q16531 whole entry partner): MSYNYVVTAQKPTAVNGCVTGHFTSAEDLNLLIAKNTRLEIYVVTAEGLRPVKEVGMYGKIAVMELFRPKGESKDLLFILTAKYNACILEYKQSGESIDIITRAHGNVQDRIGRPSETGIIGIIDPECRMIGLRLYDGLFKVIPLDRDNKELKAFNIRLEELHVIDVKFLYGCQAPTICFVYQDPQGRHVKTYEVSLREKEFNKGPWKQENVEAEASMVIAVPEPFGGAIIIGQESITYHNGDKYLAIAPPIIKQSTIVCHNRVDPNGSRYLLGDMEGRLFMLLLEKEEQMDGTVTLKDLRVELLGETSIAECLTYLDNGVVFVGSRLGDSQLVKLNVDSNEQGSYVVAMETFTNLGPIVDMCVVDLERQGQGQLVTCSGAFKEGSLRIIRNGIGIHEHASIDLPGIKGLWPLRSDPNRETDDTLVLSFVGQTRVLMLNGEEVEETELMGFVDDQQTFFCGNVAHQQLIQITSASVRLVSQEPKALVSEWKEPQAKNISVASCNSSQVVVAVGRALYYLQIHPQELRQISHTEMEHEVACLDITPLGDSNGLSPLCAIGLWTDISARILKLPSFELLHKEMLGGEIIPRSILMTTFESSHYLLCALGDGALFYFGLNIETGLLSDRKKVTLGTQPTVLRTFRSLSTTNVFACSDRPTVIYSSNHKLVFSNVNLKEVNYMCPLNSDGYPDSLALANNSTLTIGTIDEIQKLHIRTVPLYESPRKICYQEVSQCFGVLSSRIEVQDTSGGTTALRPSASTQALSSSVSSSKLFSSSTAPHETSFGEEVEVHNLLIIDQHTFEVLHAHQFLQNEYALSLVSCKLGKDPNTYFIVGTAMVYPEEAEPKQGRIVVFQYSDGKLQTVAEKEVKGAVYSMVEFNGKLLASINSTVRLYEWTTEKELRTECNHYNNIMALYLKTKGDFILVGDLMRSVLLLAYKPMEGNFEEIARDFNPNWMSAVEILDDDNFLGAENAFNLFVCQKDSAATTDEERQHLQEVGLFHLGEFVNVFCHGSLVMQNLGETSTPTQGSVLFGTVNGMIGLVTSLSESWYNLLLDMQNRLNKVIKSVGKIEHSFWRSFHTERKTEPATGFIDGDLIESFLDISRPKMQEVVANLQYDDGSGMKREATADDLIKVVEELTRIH
Nature of the assay: Androgen Receptor Degradation Assay (Nano-Glo HiBiT). The format is cell-based. Particulars: 18 h, HiBiT-tagged AR in human LnCaP cells; for Dmax: LNCaP, read-out: mean asymptote max. The method, then:
Degradation of Androgen Receptor protein in human LnCaP cells treated with PROTACs was quantified using the Nano-Glo® HiBiT Lytic Detection System (Promega) in 384 well assay plate format. A clonal LnCaP derived cell line was first established in which the AR gene was modified, using CRISPR/Cas9 editing, so the expressed AR protein included an 11 amino acid HiBiT tag at its amino-terminus. 10 mM DMSO stock solutions of PROTACs were prepared and diluted across an 11 concentration, 3 fold increment range, and 25 nL dispensed into a white opaque bottomed 384 well assay plate (Thermofisher) using an acoustic ECHO dispenser (Labcyte). […] For the assay, cells were detached from flask and resuspended with assay medium (FluoroBrite™ DMEM supplemented with 10% heat inactivated FBS, penicillin 50 U/mL and streptomycin 50 ug/mL (Thermofisher)). The cell suspension was centrifuged at 400 g for 5 min and the pellet resuspended in assay medium. 25 μL of cell suspension containing 10,000 cells was dispensed into each well of the assay plate containing the test compounds, which was then incubated for 18 h at 37° C./5% CO2. Control wells were included on each assay plate, with assay medium without cells being the no AR remaining 100% effect control, and cells treated with DMSO vehicle only, without PROTAC, the 0% effect control. 25 μL of Nano-Glo® HiBiT lysis buffer supplemented with LgBiT protein and Nano-Glo® substrate (Promega) was added to each well and the plate shaken at 500 rpm for 10 min at room temperature. The intensity of luminescence was measured using a PHERAstar microplate reader (BMG Labtech) and the % AR protein remaining in each well calculated by normalising the raw luminescence value to the above control wells. Parameters corresponding to the potency and efficacy estimates of the PROTACs were obtained from these normalised luminescence values using software (IDBS ActivityBase). These included the DC50 and the Dmax estimates. Two versions of the DC50, called relative DC50 and absolute DC50, were typically generated. These are the inflection point of a fitted 4 parameter sigmoidal response curve and the interpolated concentration of PROTAC corresponding to 50% of the protein being degraded, respectively. The Dmax parameter was the maximum experimentally observed degradation and the asymptote max parameter the fitted response curve asymptote maximum.
In general terms: With HiBiT, luminescence reflects the tagged protein that the partner subunit can reach.

As for `C[C@@H]1CN(c2ccc(C#N)c(Cl)c2)[C@@H](C)CN1C(=O)c1ccc(OCCN2CCC(n3ncc4c(N5CCC(=O)NC5=O)cncc43)CC2)nc1` [EAR174, 2-Chloro-4-((2S,5R)-4-(6-(2-(4-(4-(2,4-dioxotetrahydropyrimidin-1(2H)-yl)-1H-pyrazolo[3,4-c]pyridin-1-yl)piperidin-1-yl)ethoxy)nicotinoyl)-2,5-dimethylpiperazin-1-yl)benzonitrile], the Dmax is not below 50%.

Turning to `N#Cc1ccc(O[C@H]2CC[C@H](NC(=O)c3ccc(CCN4CCC(n5ccc6c(N7CCC(=O)NC7=O)cccc65)CC4)cc3)CC2)cc1Cl` [EAR130, N-((1r,4r)-4-(3-Chloro-4-cyanophenoxy)cyclohexyl)-4-(2-(4-(4-(2,4-dioxotetrahydropyrimidin-1(2H)-yl)-1H-indol-1-yl)piperidin-1-yl)ethyl)benzamide], the Dmax is not below 50%.

With `N#Cc1ccc(O[C@H]2CC[C@H](NC(=O)c3ccc(N4CCC[C@H](CN5CCC(n6ccc7c(N8CCC(=O)NC8=O)cccc76)CC5)C4)nn3)CC2)cc1Cl` [EAR142, N-((1r,4R)-4-(3-chloro-4-cyanophenoxy)cyclohexyl)-6-((R)-3-((4-(4-(2,4-dioxotetrahydropyrimidin-1(2H)-yl)-1H-indol-1-yl)piperidin-1-yl)methyl)piperidin-1-yl)pyridazine-3-carboxamide], the Dmax is not below 50%.

Regarding `N#Cc1ccc(O[C@H]2CC[C@H](NC(=O)c3ccc(N4CCC(CN5CCC(CCn6ccc7c(N8CCC(=O)NC8=O)cccc76)CC5)CC4)nn3)CC2)cc1Cl` [EAR179, N-((1r,4r)-4-(3-chloro-4-cyanophenoxy)cyclohexyl)-6-(4-((4-(2-(4-(2,4-dioxotetrahydropyrimidin-1(2H)-yl)-1H-indol-1-yl)ethyl)piperidin-1-yl)methyl)piperidin-1-yl)pyridazine-3-carboxamide hydrochloride], the Dmax is not below 50%.

On to `N#Cc1ccc(O[C@H]2CC[C@H](NC(=O)c3ccc(N4CCC(CN5CC[C@H](n6ccc7c(N8CCC(=O)NC8=O)cccc76)[C@@H](F)C5)CC4)nn3)CC2)cc1Cl` [EAR145, N-((1r,4r)-4-(3-Chloro-4-cyanophenoxy)cyclohexyl)-6-(4-(((3S,4S)-4-(4-(2,4-dioxotetrahydropyrimidin-1(2H)-yl)-1H-indol-1-yl)-3-fluoropiperidin-1-yl)methyl)piperidin-1-yl)pyridazine-3-carboxamide, hydrochloride], for which the Dmax was not below 50%.

On to `N#Cc1ccc(O[C@H]2CC[C@H](NC(=O)c3ccc(N4CCC(CN5CC[C@@H](n6ccc7c(N8CCC(=O)NC8=O)cccc76)[C@@H](F)C5)CC4)nn3)CC2)cc1Cl` [EAR155, N-((1r,4r)-4-(3-Chloro-4-cyanophenoxy)cyclohexyl)-6-(4-(((3S,4R)-4-(4-(2,4-dioxotetrahydropyrimidin-1(2H)-yl)-1H-indol-1-yl)-3-fluoropiperidin-1-yl)methyl)piperidin-1-yl)pyridazine-3-carboxamide, hydrochloride], for which the Dmax was not below 50%.

`N#Cc1ccc(O[C@H]2CC[C@H](NC(=O)c3ccc(N4CCC(C#N)(CCN5CCC(n6ncc7c(N8CCC(=O)NC8=O)cccc76)CC5)CC4)nn3)CC2)cc1Cl` [EAR221, N-((1r,4r)-4-(3-chloro-4-cyanophenoxy)cyclohexyl)-6-(4-cyano-4-(2-(4-(4-(2,4-dioxotetrahydropyrimidin-1(2H)-yl)-1H-indazol-1-yl)piperidin-1-yl)ethyl)piperidin-1-yl)pyridazine-3-carboxamide]: the Dmax was not below 50%.

In the case of `CC(C)n1ccc2c(N3CCC(=O)NC3=O)cc(C(=O)N3CCN(CCC4CCN(c5ccc(NC(=O)N6C[C@H](C)N(c7ccc(C#N)c(Cl)c7)C[C@H]6C)cn5)CC4)CC3)cc21` [EAR 118, (2R,5S)-4-(3-Chloro-4-cyanophenyl)-N-(6-(4-(2-(4-(4-(2,4-dioxotetrahydropyrimidin-1(2H)-yl)-1-isopropyl-1H-indole-6-carbonyl)piperazin-1-yl)ethyl)piperidin-1-yl)pyridin-3-yl)-2,5-dimethylpiperazine-1-carboxamide], the “mean relative pDC50” value was found to be 5.72 and the Dmax is not below 50%.

Turning to `N#Cc1ccc(O[C@H]2CC[C@H](NC(=O)c3ccc(N4CCC5(CC4)CC(CN4CCC(n6ncc7c(N8CCC(=O)NC8=O)cccc76)CC4)C5)nn3)CC2)cc1Cl` [EAR237, N-((1r,4r)-4-(3-chloro-4-cyanophenoxy)cyclohexyl)-6-(2-((4-(4-(2,4-dioxotetrahydropyrimidin-1(2H)-yl)-1H-indazol-1-yl)piperidin-1-yl)methyl)-7-azaspiro[3.5]nonan-7-yl)pyridazine-3-carboxamide], the Dmax was not below 50%.

For `N#Cc1ccc(O[C@H]2CC[C@H](NC(=O)c3ccc(OC4CN(C(=O)CN5CCC(n6ccc7c(N8CCC(=O)NC8=O)cccc76)CC5)C4)nn3)CC2)cc1Cl` [EAR178, N-((1r,4r)-4-(3-Chloro-4-cyanophenoxy)cyclohexyl)-6-((1-(2-(4-(4-(2,4-dioxotetrahydropyrimidin-1(2H)-yl)-1H-indol-1-yl)piperidin-1-yl)acetyl)azetidin-3-yl)oxy)pyridazine-3-carboxamide], the Dmax was not below 50%.

For the molecule `N#Cc1ccc(O[C@H]2CC[C@H](NC(=O)c3ccc(N4CCC(CN5CCC(n6ccc7c(N8CCC(=O)NC8=O)cccc76)CC5)CC4)nn3)CC2)cc1Cl` [EAR23, N-((1r,4r)-4-(3-Chloro-4-cyanophenoxy)cyclohexyl)-6-(4-((4-(4-(2,4-dioxotetrahydropyrimidin-1(2H)-yl)-1H-indol-1-yl)piperidin-1-yl)methyl)piperidin-1-yl)pyridazine-3-carboxamide], the Dmax was not below 50%.

As to `CC1(C)[C@H](NC(=O)c2cnc(N3CCC(CN4CCC(n5ccc6c(N7CCC(=O)NC7=O)cccc65)CC4)CC3)nc2)C(C)(C)[C@H]1Oc1ccc(C#N)c(Cl)c1` [EAR11, N-((1r,3r)-3-(3-Chloro-4-cyanophenoxy)-2,2,4,4-tetramethylcyclobutyl)-2-(4-((4-(4-(2,4-dioxotetrahydropyrimidin-1(2H)-yl)-1H-indol-1-yl)piperidin-1-yl)methyl)piperidin-1-yl)pyrimidine-5-carboxamide], the Dmax was not below 50%.

Turning to `N#Cc1ccc(O[C@H]2CC[C@H](NC(=O)c3ccc(N4CCC(CN5CCC[C@@](F)(Cn6ccc7c(N8CCC(=O)NC8=O)cccc76)C5)CC4)nn3)CC2)cc1Cl` [EAR159, N-((1r,4r)-4-(3-Chloro-4-cyanophenoxy)cyclohexyl)-6-(4-(((S)-3-((4-(2,4-dioxotetrahydropyrimidin-1(2H)-yl)-1H-indol-1-yl)methyl)-3-fluoropiperidin-1-yl)methyl)piperidin-1-yl)pyridazine-3-carboxamide], the Dmax is not below 50%.

Turning to `N#Cc1ccc(O[C@H]2CC[C@H](NC(=O)c3cnc(N4CCC(CN5CCC(n6ccc7c(N8CCC(=O)NC8=O)cncc76)CC5)CC4)cn3)CC2)cc1C(F)(F)F` [AR15, N-((1r,4r)-4-(4-Cyano-3-(trifluoromethyl)phenoxy)cyclohexyl)-5-(4-((4-(4-(2,4-dioxotetrahydropyrimidin-1(2H)-yl)-1H-pyrrolo[2,3-c]pyridin-1-yl)piperidin-1-yl)methyl)piperidin-1-yl)pyrazine-2-carboxamide], the Dmax is not below 50%.

For the molecule `CC1(C)CCN(c2ccc(C(=O)N[C@H]3CC[C@H](Oc4ccc(C#N)c(Cl)c4)CC3)nn2)CC1CN1CCC(n2ncc3c(N4CCC(=O)NC4=O)cccc32)CC1` (stereo partly drawn) [EAR222, N-((1r,4r)-4-(3-chloro-4-cyanophenoxy)cyclohexyl)-6-(3-((4-(4-(2,4-dioxotetrahydropyrimidin-1(2H)-yl)-1H-indazol-1-yl)piperidin-1-yl)methyl)-4,4-dimethylpiperidin-1-yl)pyridazine-3-carboxamide], the Dmax was not below 50%.

On to `N#Cc1ccc(O[C@H]2CC[C@H](NC(=O)c3ccc(N4CCC(CN5CCC(n6ccc7c(N8CCC(=O)NC8=O)cc(F)cc76)CC5)CC4)nn3)CC2)cc1Cl` [EAR31, N-((1r,4r)-4-(3-Chloro-4-cyanophenoxy)cyclohexyl)-6-(4-((4-(4-(2,4-dioxotetrahydropyrimidin-1(2H)-yl)-6-fluoro-1H-indol-1-yl)piperidin-1-yl)methyl)piperidin-1-yl)pyridazine-3-carboxamide hydrochloride], for which the Dmax was not below 50%.

For `N#Cc1ccc(O[C@H]2CC[C@H](NC(=O)c3ccc(N4CCCC(CN5CCC(n6ncc7c(N8CCC(=O)NC8=O)cccc76)CC5)C4)nn3)CC2)cc1Cl` (stereo partly drawn) [EAR36, N-((1r,4r)-4-(3-Chloro-4-cyanophenoxy)cyclohexyl)-6-(3-((4-(4-(2,4-dioxotetrahydropyrimidin-1(2H)-yl)-1H-indazol-1-yl)piperidin-1-yl)methyl)piperidin-1-yl)pyridazine-3-carboxamide], the Dmax was not below 50%.
